pIC50: −log10 of the molar value.

By pIC50 is commonly meant the negative decadic logarithm of the IC50, by convention in mol/L.

T1 sequence (Q13164 whole entry): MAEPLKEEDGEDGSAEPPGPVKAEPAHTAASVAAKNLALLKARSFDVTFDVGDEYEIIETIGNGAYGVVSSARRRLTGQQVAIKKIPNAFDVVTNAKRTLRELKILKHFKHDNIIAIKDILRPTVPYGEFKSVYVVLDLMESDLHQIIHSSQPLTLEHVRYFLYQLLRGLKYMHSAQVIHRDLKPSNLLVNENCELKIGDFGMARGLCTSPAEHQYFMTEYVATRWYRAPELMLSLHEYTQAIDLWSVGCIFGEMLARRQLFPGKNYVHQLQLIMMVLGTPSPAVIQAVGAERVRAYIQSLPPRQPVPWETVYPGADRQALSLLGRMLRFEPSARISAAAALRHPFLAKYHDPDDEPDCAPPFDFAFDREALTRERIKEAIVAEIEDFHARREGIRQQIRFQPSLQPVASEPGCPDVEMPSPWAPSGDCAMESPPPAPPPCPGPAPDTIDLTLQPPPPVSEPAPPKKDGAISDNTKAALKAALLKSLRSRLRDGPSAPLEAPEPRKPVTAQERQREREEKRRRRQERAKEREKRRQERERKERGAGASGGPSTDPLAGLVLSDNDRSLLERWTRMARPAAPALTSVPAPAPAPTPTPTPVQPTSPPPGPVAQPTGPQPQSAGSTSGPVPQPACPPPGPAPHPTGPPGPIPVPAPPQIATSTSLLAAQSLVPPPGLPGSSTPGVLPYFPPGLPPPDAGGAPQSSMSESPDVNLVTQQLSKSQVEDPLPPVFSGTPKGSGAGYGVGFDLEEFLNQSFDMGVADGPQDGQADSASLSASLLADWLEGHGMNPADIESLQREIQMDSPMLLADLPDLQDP

The test has as its target T1, ERK5 (Homo sapiens, UniProt Q13164).
T1 construct: made in house
Description: ERK5 IMAP assay (fluorescence polarisation). Format: biochemical. The following applies: average (e.g. geometric mean) where more than one data point; read-out: ERK5 IC50. In general terms: Fluorescence polarisation rises when a labelled molecule tumbles more slowly, as on binding a larger partner.
In the case of `CN1CCN(c2cc(NC(=O)c3cc(C(=O)c4c(Cl)ccc(Cl)c4F)c[nH]3)ccn2)CC1` [Example 37, 4-(3,6-Dichloro-2-fluorobenzoyl)-N-(2-(4-methylpiperazin-1-yl)pyridin-4-yl)-1H-pyrrole-2-carboxamide], the pIC50 was 7.44. Regarding `COc1ccc(Cl)c(C(=O)c2c[nH]c(C(=O)Nc3ccc(CN4CCOCC4)nc3)c2)c1F` [Example 116, 4-(6-Chloro-2-fluoro-3-methoxybenzoyl)-N-(6-(morpholinomethyl)pyridin-3-yl)-1H-pyrrole-2-carboxamide], the pIC50 is 7.66. As for `O=C(NC1CCOCC1)c1cc(C(=O)c2c(F)cccc2Br)c[nH]1` [Example 198, 4-(2-Bromo-6-fluorobenzoyl)-N-(tetrahydro-2H-pyran-4-yl)-1H-pyrrole-2-carboxamide], the figure is 5.91; as for `O=C(Nc1cccnc1)c1cc(C(=O)c2c(Cl)ccc(F)c2F)c[nH]1` [Example 221, 4-(6-Chloro-2,3-difluorobenzoyl)-N-(pyridin-3-yl)-1H-pyrrole-2-carboxamide], 6.15.

For the compound `CCc1ccncc1NC(=O)c1cc(C(=O)c2c(Cl)ccc(Cl)c2F)c[nH]1` [Example 94, 4-(3,6-Dichloro-2-fluorobenzoyl)-N-(4-ethylpyridin-3-yl)-1H-pyrrole-2-carboxamide], the negative-log IC50 (pIC50) is 5.78.

Consider `O=C(Nc1ccc(OC2COC2)nc1)c1cc(C(=O)c2c(Cl)ccc(Cl)c2F)c[nH]1` [Example 279, 4-(3,6-Dichloro-2-fluorobenzoyl)-N-(6-(oxetan-3-yloxy)pyridin-3-yl)-1H-pyrrole-2-carboxamide], for which the pIC50 is 6.06. As for `Cc1ccncc1NC(=O)c1cc(C(=O)c2c(Cl)ccc(Cl)c2F)c[nH]1` [Example 93, 4-(3,6-Dichloro-2-fluorobenzoyl)-N-(4-methylpyridin-3-yl)-1H-pyrrole-2-carboxamide], the figure is 6.32; as for `O=C(NC1CCNCC1)c1cc(C(=O)c2cc(Cl)ccc2F)c[nH]1` [Example 230, 4-(5-Chloro-2-fluorobenzoyl)-N-(piperidin-4-yl)-1H-pyrrole-2-carboxamide], 5.78; as for `CCc1cccc(F)c1C(=O)c1c[nH]c(C(=O)Nc2cccnc2)c1` [Example 199, 4-(2-Ethyl-6-fluorobenzoyl)-N-(pyridin-3-yl)-1H-pyrrole-2-carboxamide], 4.90.

In the case of `O=C(Nc1cncnc1)c1cc(C(=O)c2c(F)cccc2Br)c[nH]1` [Example 145, 4-(2-Bromo-6-fluorobenzoyl)-N-(pyrimidin-5-yl)-1H-pyrrole-2-carboxamide], the pIC50 is 6.18. Take `O=C(Nc1ccc(OCCO)nc1)c1cc(C(=O)c2c(Cl)ccc(Cl)c2F)c[nH]1` [Example 281, 4-(3,6-Dichloro-2-fluorobenzoyl)-N-(6-(2-hydroxyethoxy)pyridin-3-yl)-1H-pyrrole-2-carboxamide]: the pIC50 was 6.41. As for `C=Cc1ccc(F)c(C(=O)c2c[nH]c(C(=O)NC3CCN(C)CC3)c2)c1F` [Ex 167], the pIC50 was 6.19. The figure for `CC(C)N1CCC(NC(=O)c2cc(C(=O)c3c(F)cccc3Cl)c[nH]2)CC1` [Example 1, 4-(2-Chloro-6-fluorobenzoyl)-N-(1-isopropylpiperidin-4-yl)-1H-pyrrole-2-carboxamide] is 6.18; for `O=C(Nc1cnc(N2CCNCC2)nc1)c1cc(C(=O)c2c(F)cccc2Cl)c[nH]1` [Example 26, 4-(2-Chloro-6-fluorobenzoyl)-N-(2-(piperazin-1-yl)pyrimidin-5-yl)-1H-pyrrole-2-carboxamide] it is 7.05; for `C#Cc1cccc(F)c1C(=O)c1c[nH]c(C(=O)NC2CCN(C)CC2)c1` [Example 205, 4-(2-Ethynyl-6-fluorobenzoyl)-N-(1-methylpiperidin-4-yl)-1H-pyrrole-2-carboxamide] it is 5.55. As for `Cc1ccc(F)c(C(=O)c2c[nH]c(C(=O)NC3CCN(C)CC3)c2)c1F` [Example 220, 4-(2,6-Difluoro-3-methylbenzoyl)-N-(1-methylpiperidin-4-yl)-1H-pyrrole-2-carboxamide], the figure is 6.40. The figure for `O=C(Nc1cccnc1)c1cc(C(=O)c2c(F)ccc(Cl)c2F)c[nH]1` [Example 210, 4-(3-Chloro-2,6-difluorobenzoyl)-N-(pyridin-3-yl)-1H-pyrrole-2-carboxamide] is 6.54; for `O=C(Nc1cccnc1)c1cc(C(=O)c2c(F)cccc2C2CC2)c[nH]1` [Example 202, 4-(2-Cyclopropyl-6-fluorobenzoyl)-N-(pyridin-3-yl)-1H-pyrrole-2-carboxamide] it is 4.64. Turning to `CN1CCC(Nc2ccc(NC(=O)c3cc(C(=O)c4c(Cl)ccc(Cl)c4F)c[nH]3)cn2)CC1` [Example 32, 4-(3,6-Dichloro-2-fluorobenzoyl)-N-(6-((1-methylpiperidin-4-yl)amino)pyridin-3-yl)-1H-pyrrole-2-carboxamide], the pIC50 was 7.62. On to `O=C(Nc1ccc2cn[nH]c2c1)c1cc(C(=O)c2c(F)cccc2Br)c[nH]1` [Example 157, 4-(2-Bromo-6-fluorobenzoyl)-N-(1H-indazol-6-yl)-1H-pyrrole-2-carboxamide], for which the pIC50 is 5.15. `CNCc1ccc(F)c(C(=O)c2c[nH]c(C(=O)Nc3cccnc3)c2)c1F` [Example 274, 4-(2,6-difluoro-3-((methylamino)methyl)benzoyl)-N-(pyridin-3-yl)-1H-pyrrole-2-carboxamide]: the pIC50 was 5.44. As for `O=C(Nc1cncnc1)c1cc(C(=O)c2c(F)ccc(Cl)c2Cl)c[nH]1` [Example 170, 4-(2,3-Dichloro-6-fluorobenzoyl)-N-(pyrimidin-5-yl)-1H-pyrrole-2-carboxamide], the figure is 6.46. For the compound `O=C(Nc1ccnc(Cl)n1)c1cc(C(=O)c2c(F)cccc2Cl)c[nH]1` [Example 140, 4-(2-Chloro-6-fluorobenzoyl)-N-(2-chloropyrimidin-4-yl)-1H-pyrrole-2-carboxamide], the pIC50 is 5.36. With `O=C(NC1CCNCC1)c1cc(C(=O)c2c(F)ccc(Cl)c2F)c[nH]1` [Example 212, 4-(3-Chloro-2,6-difluorobenzoyl)-N-(piperidin-4-yl)-1H-pyrrole-2-carboxamide], the negative logarithm of the IC50 (pIC50) was 6.53. The figure for `CCCc1ccncc1NC(=O)c1cc(C(=O)c2c(F)cccc2Cl)c[nH]1` [Example 89, 4-(2-Chloro-6-fluorobenzoyl)-N-(4-propylpyridin-3-yl)-1H-pyrrole-2-carboxamide] is 5.48; for `O=C(Nc1cnn(CCO)c1)c1cc(C(=O)c2c(Cl)ccc(Cl)c2F)c[nH]1` [Example 235, 4-(3,6-Dichloro-2-fluorobenzo)-N-(1-(2-hydroxyethyl)-1H-pyrazol-4-yl)-1H-pyrrole-2-carboxamide] it is 7.21; for `O=C(Nc1ccnc(Cl)n1)c1cc(C(=O)c2c(F)cccc2Br)c[nH]1` [Example 141, 4-(2-Bromo-6-fluorobenzoyl)-N-(2-chloropyrimidin-4-yl)-1H-pyrrole-2-carboxamide] it is 5.11.

Regarding `O=C(NC1CCNCC1)c1cc(C(=O)c2c(F)ccc(F)c2F)c[nH]1` [Example 208, N-(Piperidin-4-yl)-4-(2,3,6-trifluorobenzoyl)-1H-pyrrole-2-carboxamide], the pIC50 is 6.21. The figure for `CN1CCC(NC(=O)c2cc(C(=O)c3cc(F)ccc3F)c[nH]2)CC1` [Example 227, 4-(2,5-Difluorobenzoyl)-N-(1-methylpiperidin-4-yl)-1H-pyrrole-2-carboxamide] is 5.21; for `CN(c1ncc(NC(=O)c2cc(C(=O)c3c(Cl)ccc(Cl)c3F)c[nH]2)cn1)C1CCNCC1` [Example 106, 4-(3,6-Dichloro-2-fluorobenzoyl)-N-(2-(methyl(piperidin-4-yl)amino)pyrimidin-5-yl)-1H-pyrrole-2-carboxamide] it is 7.70; for `CNc1ncc(NC(=O)c2cc(C(=O)c3c(F)cccc3Cl)c[nH]2)cn1` [Example 12, 4-(2-Chloro-6-fluorobenzoyl)-N-(2-(methylamino)pyrimidin-5-yl)-1H-pyrrole-2-carboxamide] it is 5.76. As for `Cc1cc(NC(=O)c2cc(C(=O)c3c(F)cccc3Cl)c[nH]2)nc(C)n1` [Example 142, 4-(2-Chloro-6-fluorobenzoyl)-N-(2,6-dimethylpyrimidin-4-yl)-1H-pyrrole-2-carboxamide], the figure is 5.38. As for `O=C(Nc1cncnc1)c1cc(C(=O)c2c(F)ccc(Cl)c2F)c[nH]1` [Example 211, 4-(3-Chloro-2,6-difluorobenzoyl)-N-(pyrimidin-5-yl)-1H-pyrrole-2-carboxamide], the figure is 6.65.

As to `COc1ccc(Cl)c(C(=O)c2c[nH]c(C(=O)Nc3cnn(Cc4ccccn4)c3)c2)c1F` [Example 65], the pIC50 was 7.27. For the compound `O=C(NC1CCNCC1)c1cc(C(=O)c2cc(F)ccc2F)c[nH]1` [Example 226, 4-(2,5-Difluorobenzoyl)-N-(piperidin-4-yl)-1H-pyrrole-2-carboxamide], the pIC50 was 5.07. As for `COc1ccc(Cl)c(C(=O)c2c[nH]c(C(=O)Nc3ccc(NC4CCN(C)CC4)nc3)c2)c1F` [Example 61, 4-(6-Chloro-2-fluoro-3-methoxybenzoyl)-N-(6-((1-methylpiperidin-4-yl)amino)pyridin-3-yl)-1H-pyrrole-2-carboxamide], the figure is 7.57; as for `CCN1CCC(NC(=O)c2cc(C(=O)c3c(F)cccc3Cl)c[nH]2)CC1` [Example 5, 4-(2-Chloro-6-fluorobenzoyl)-N-(1-ethylpiperidin-4-yl)-1H-pyrrole-2-carboxamide], 6.36. For `CC(=O)N1CCC(NC(=O)c2cc(C(=O)c3c(F)cccc3Cl)c[nH]2)CC1` [Example 6, N-(1-Acetylpiperidin-4-yl)-4-(2-chloro-6-fluorobenzoyl)-1H-pyrrole-2-carboxamide], the pIC50 was 6.34.

As to `O=C(NC1CCNCC1)c1cc(C(=O)c2c(Cl)ccc(F)c2F)c[nH]1` [Example 224, 4-(6-Chloro-2,3-difluorobenzoyl)-N-(piperidin-4-yl)-1H-pyrrole-2-carboxamide], the negative-log IC50 (pIC50) is 6.81.

In the case of `Cc1ccc(Cl)c(C(=O)c2c[nH]c(C(=O)NC3CCN(C)CC3)c2)c1F` [Example 180, 4-(6-Chloro-2-fluoro-3-methylbenzoyl)-N-(1-methylpiperidin-4-yl)-1H-pyrrole-2-carboxamide], the pIC50 was 6.31.

Source of the values: patent publication US10344017B2, “Pyrrolcarboxamide derivatives for the inhibition of ERK5” (CANCER RESEARCH TECHNOLOGY LIMITED, priority 2014, dated 2019).
